Experimental data from patent US4761478A, “3-deazaguanine sulfonic acid salts” (Warner-Lambert Company, priority 1986, dated 1988).
“Also recorded” adds a separate entry of the source. Counter-ions that a name gives are not always drawn. Like-named read-outs stand apart in the source and are kept apart here.

Assays:
[1] = trimetrexate acid addition salts in water; data from U.S. Pat. No. 4,376,858; cited from earlier work
[2] = Water solubility of 3-deazaguanine and its acid addition salts (Table I); assay type: physicochemical; details: for Solubility: 3-deazaguanine salts in water; for ml Water Needed to Dissolve / water solubility (in words): 3-deazaguanine salts; for ml Water Needed to Dissolve: 250 mg 3-deazaguanine plus one equivalent weight of the acid, water added until complete solution
Method: The common acids employed for the formulation of acid addition salts of pharmaceutical bases are listed in J. Pharm. […] The solubility values presented in Table I were determined as follows: 3-deazaguanine (250 mg) was suspended in a small volume of water and one equivalent weight of the acid was added with stirring. Stirring was continued and small volumes of water were added intermittently until complet solution was obtained.

[3] = Solubility of trimetrexate acid addition salts in water (Table II); assay type: physicochemical; details: decreasing order of solubility
[4] = Relative solubility of m-AMSA acid addition salts (Table III); assay type: physicochemical
[5] = Aqueous solution of 3-deazaguanine methanesulfonate salt remaining clear and free of precipitate; assay type: physicochemical; details: in water
Method: To a slurry of 24.5 g of 6-amino-1,5-dihydro-4H-imidazo-[4,5-c]pyridin-4-one (3-deazaguanine) in 250 ml of methyl alcohol was added a solution of 17.0 g of methanesulfonic acid in 50 ml of methyl alcohol. The mixture was stirred at room temperature for about 10 minutes, filtered, and the filter cake washed with methyl alcohol to give, after drying, 35.5 g (88%) of 3-deazaguanine methanesulfonate salt, mp 273°-275° C. This material produced a solution in water at a concentration of 41 mg/ml which remained clear and free of any precipitate for more than three days.

[6] = Chemical stability of the sodium salt of 3-deazaguanine in aqueous solution; assay type: physicochemical; details: aqueous solution of sodium salt of 3-deazaguanine

SMILES | Solubility [1] | Solubility [2] | ml Water Needed to Dissolve [2] | other results
COc1cc(NCc2ccc3nc(N)nc(N)c3c2C)cc(OC)c1OC [Ethoxyacetic] | 19500 µg/mL |  |  | 
Nc1cc2nc[nH]c2c(=O)[nH]1 [HCl] |  | 3300 to 3800 µg/mL | 65 to 75 mL | 
Nc1cc2nc[nH]c2c(=O)[nH]1 [Maleic] |  | 1600 to 1700 µg/mL | 150 to 160 mL | 
CS(=O)(=O)O.Nc1cc2nc[nH]c2c(=O)[nH]1 [Methanesulfonic, 3-deazaguanine methanesulfonate salt] | 9830 µg/mL |  | 5 mL | water solubility (in words) ([2]; water): solubility advantage; Solubility ([2]; water, read-out: Solubility): 50000 µg/mL; order of solubility among the trimetrexate salts tested [3]: sixth; solubility compared with other m-AMSA salts (in words) [4]: one of the least soluble salts; time the solution remained clear and free of any precipitate ([5]; 41 mg/ml): more than three; Solubility ([5]; read-out: concentration of solution produced in water): 41000 µg/mL
Nc1cc2nc[nH]c2c(=O)[nH]1 [H2 SO4] |  | 800 to 1000 µg/mL | 250 to 300 mL | water solubility (in words) ([2]; water, listed as sulfate): poorly soluble; water solubility (in words) ([2]; water, listed as sulfate salt): lower solubility; solubility relative to the corresponding free base ([2]; sulfate salt of 3-deazaguanine vs free base): about one-half
Nc1cc2nc[nH]c2c(=O)[nH]1 [sodium salt] |  |  |  | chemical stability in aqueous solution (in words) [6]: tend to begin to degrade within a few hours of formulation; also recorded: chemically unstable
Nc1cc2nc[nH]c2c(=O)[nH]1 [H3 PO4] |  | 1900 to 2100 µg/mL | 120 to 130 mL | 
COc1cc(NCc2ccc3nc(N)nc(N)c3c2C)cc(OC)c1OC [2-Naphthalenesulfonic] | 150 µg/mL |  |  | 
COc1cc(NCc2ccc3nc(N)nc(N)c3c2C)cc(OC)c1OC [p-Toluenesulfonic] | 1730 µg/mL |  |  | 
